Data from US20250145715A1, “B7-H3 TARGETING FUSION PROTEINS AND METHODS OF USE THEREOF” (GT Biopharma, Inc., priority 2021, published 2025).

Key:
H929 cells = test: IncuCyte Zoom NK cell killing of H929; assay type: cell-based, human
Source text: FIGS. 8A-8D illustrate the ability of peripheral blood NK cells with or without B7-H3-TriKE to kill myeloma cells in live imaging IncuCyte Zoom assays. FIG. 8A is a graph showing the effects with effector:target (E:T) ratios of 2:1 and 4:1 on H929 cells. FIG. 8B is a graph showing the effects with effector:target (E:T) ratios of 2:1 and 4:1 on MM1S cells. FIG. 8C is a graph showing the effects with effector:target (E:T) ratios of 2:1 and 4:1 on RPMI-8226 cells. FIG. 8D is a graph showing the effects with effector:target (E:T) ratios of 2:1 and 4:1 on U266 cells.
FIGS. 9A-9D illustrate the efficacy of B7-H3-TriKE with the proteasome inhibitor bortezomib (10 nM) and the immunomodulatory drug lenalidomide (5 μM). FIG. 9A is a graph showing the effect of the combination therapy on H929 cells after 48 hours. FIG. 9B is a graph showing the effect of the combination therapy on RPMI-8226 cells after 48 hours. FIG. 9C is a graph showing the effect of the combination therapy on MM1S cells after 48 hours. FIG. 9D is a graph showing the effect of the combination therapy on U266 cells after 48 hours.
The ability of peripheral blood NK cells with or without B7-H3-TriKE to kill myeloma cells was compared in live imaging IncuCyte Zoom assays with escalating doses of TriKE. Maximal killing occurred with 3 nM concentration.
The efficacy of B7-H3-TriKE with the proteasome inhibitor bortezomib (10 nM) and the immunomodulatory drug lenalidomide (5 μM) was also tested. Cytotoxicity curves were compared by repeated measures ANOVA and performed in triplicate.

PC-3 spheroids = test: PC-3 spheroid assay; assay type: cell-based, human
Source text: FIG. 18 is a graph illustrating the size of PC-3 spheroids over time.
FIG. 19 is a graph illustrating the size of PC-3 spheroids over time.

[1] = system: OVCAR5 ovarian cancer cells; test: NK cell CD107a / IFNγ flow cytometry against OVCAR5; assay type: cell-based, human; conditions: 30 nM, E:T 2:1, 4 hrs; vs no treatment and rhIL-15 alone
Procedure: Healthy donor or ovarian cancer PBMC cells were incubated with ovarian tumor targets at 2:1 E:T ratio for 4 hrs with 30 nM TriKE or control condition. FIG. 30A is a graph illustrating pooled proportion of NK cells from healthy donors expressing CD107a+ (degranulation) against OVCAR8 targets (N=8). FIG. 30B is a graph illustrating pooled proportion of NK cells from healthy donors expressing IFNγ cytokine production against OVCAR8 targets (N=8). FIG. 30C is a graph illustrating pooled proportion of NK cells from healthy donors expressing CD107a+ (degranulation) against OVCAR3 targets (N=4). […] FIG. 30I is a graph illustrating that tumor killing was evaluated using IncuCyte imaging assay. […] The percentage of Live (Nuclight Red+Caspase 3/7−) tumor cells was quantified over a 48-h period and normalized to tumor alone. Readings were obtained every 15 min (representative of four separate experiments). * p<0.05, ** p<0.01, *** p<0.001, and **** p<0.0001.
ADCC was measured in a flow cytometry assay by evaluating degranulation via CD107a (lysosomal-associated membrane protein LAMP-1) and intracellular IFNγ production. […] Samples were washed and evaluated in an LSRII flow cytometer (BD Biosciences, San Jose, CA, USA).
The ability of cam1615B7-H3 TriKE to mediate NK cell activity against ovarian cancer cells was evaluated. […]

[2] = Toxicity assessment, weights of NSG mice engrafted with NK cells; assay type: in vivo; conditions: irradiated NSG mice, 1 million NK cells, treated three weeks, weights tracked 90 days
Procedure: As illustrated in FIGS. 32A-32F, cam1615B7-H3 TriKE mediates anti-tumor activity in vivo. Determination of in vivo activity is a critical step for translation. However, prior to evaluating the ability of the cam1615B7-H3 TriKE to induce function against tumor the potential for toxicity was assessed. To do this NSG mice were irradiated, engrafted with 1 million NK cells, treated with nothing, IL-15, or cam1615B7-H3 for three weeks, and weights were tracked over the course of 90 days post initial treatment. […] This is not surprising given the low toxicity profile of IL-15 and the safety profile of B7-H3. […] In this model, human NK cells and human high grade serous MA-148-luc cells are injected into the peritoneal cavity of NSG mice.

B7-H3 TriKE: camelid nanobodies targeting CD16 and B7-H3 joined by IL-15 and two linkers; sequence table equates the name with cam1615B7-H3
NK cell killing of H929 (H929 cells; E:T 2:1): more potently killed | NK cell killing of H929 (H929 cells; E:T 4:1): no difference in killing | PC-3 spheroid size over time (PC-3 spheroids): reduce PC-3 spheroid size over time | killing of PC3 spheroids (PC-3 spheroids; photographs, FIG. 20): efficient killing of PC3 spheroids

cam1615B7-H3: second-generation TriKE: humanized camelid anti-CD16 VHH, human wild-type IL-15, anti-B7-H3 mAb 376.96 scFv; SEQ ID NO:1
NK cell degranulation against OVCAR5 [1]: robust | NK cell intracellular IFNγ production against OVCAR5 [1]: robust | body weight vs controls [2]: no significant differences
